The source made the active and inactive calls. No cut-off for these calls is given here.
Key:
[1] = Inhibition of RGGT; set-up: species or system Homo sapiens
[2] = Bone mineral affinity on hydroxyaptite assessed as retention time by chromatography; format: functional
[3] = Reduction of viability of mouse […] cells after 48 hrs; format: cell-based
J744 [4] = assay: Inhibition of RGGT mediated Rab11 prenylation in […] cells; format: cell-based; conditions: Mus musculus
[5] = molecular target: T1, Farnesyl pyrophosphate synthase (Homo sapiens, UniProt P14324); assay: Inhibition of human cloned FPPS expressed in Escherichia col […]
T1 sequence (P14324 whole entry): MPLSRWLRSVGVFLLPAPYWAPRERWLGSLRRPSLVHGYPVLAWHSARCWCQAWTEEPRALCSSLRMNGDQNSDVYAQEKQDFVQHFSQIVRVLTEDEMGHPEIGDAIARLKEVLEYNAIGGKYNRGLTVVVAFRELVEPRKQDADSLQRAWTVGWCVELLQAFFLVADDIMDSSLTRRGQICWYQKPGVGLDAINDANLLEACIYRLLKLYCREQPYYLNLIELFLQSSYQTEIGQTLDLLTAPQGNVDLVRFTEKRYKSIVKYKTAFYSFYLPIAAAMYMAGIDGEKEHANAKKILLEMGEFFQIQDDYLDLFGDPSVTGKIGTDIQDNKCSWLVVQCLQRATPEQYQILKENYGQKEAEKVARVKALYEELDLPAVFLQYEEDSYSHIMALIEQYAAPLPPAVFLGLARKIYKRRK

J744 [6] = assay: Inhibition of RGGT mediated Rap1A prenylation in […] cells; format: cell-based; conditions: Mus musculus

Compound	IC50 [1]	Activity [2]	IC50 [3]	MED (J744 [4])	IC50 [5]	TIME [2]	MED (J744 [6])
O=C(O)C(Cl)(Cc1cccnc1)P(=O)(O)O (stereo not drawn)	16.4 µM	inactive	5 µM	125 µM	> 600 µM		
O=C(O)[C@@](O)(Cc1cccnc1)P(=O)(O)O	24.1 µM		2.3 µM	62 µM	254 µM	0.0767 h	
O=P(O)(O)C(Cc1cccnc1)P(=O)(O)O			212 µM		0.0342 µM	0.0972 h	50 µM
O=P(O)(O)C(O)(Cc1cccnc1)P(=O)(O)O [RISEDRONIC ACID]			31 µM			0.166 h	12 µM
O=C(O)C(Cc1cccnc1)P(=O)(O)O (stereo not drawn)	35.3 µM	inactive	2.6 µM	62 µM			
O=P(O)(O)C(F)(Cc1cccnc1)P(=O)(O)O			140 µM		0.0164 µM	0.0988 h	100 µM
O=P(O)(O)C(Cl)(Cc1cccnc1)P(=O)(O)O			679 µM		0.0946 µM	0.101 h	400 µM
O=C(O)C(Br)(Cc1cccnc1)P(=O)(O)O (stereo not drawn)	17.7 µM	inactive	5.5 µM	125 µM	> 60 µM		
O=C(O)C(F)(Cc1cccnc1)P(=O)(O)O (stereo not drawn)	16.3 µM	inactive	1.8 µM	31 µM	> 600 µM		
O=P(O)(O)C(Br)(Cc1cccnc1)P(=O)(O)O			673 µM		0.34 µM	0.0955 h	400 µM

Reference: ChEMBL document CHEMBL1138296, “Synthesis and biological evaluation of alpha-halogenated bisphosphonate and phosphonocarboxylate analogues of risedronate” (J Med Chem, 2007)
